Source: ChEMBL document CHEMBL3882736, “Modulation microtubules diseases; antiproliferative agents; antiinflamamtory agents” (2011)

What was measured:
[1] = Cytotoxicity against human PC3 cells assessed as growth inhibition at 20 uM after 40 hrs by MTT assay relative to control; type: functional; settings: PC-3, 40 h, read-out: GI
Outline: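 In 96-well plates, 10 µL compound (10× final) from screening plates prepared at 20 µM received 90 µL per well of late-log-phase human tumour cells in their own medium with 10% FBS. The plates stood 40 hr at 37° C. with 5% CO2 before a 6-hour MTT step, overnight SDS/HCl lysis and reading at 590 nm. Values give growth inhibition relative to control.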

Tubulin (Homo sapiens) = Tubulin (Homo sapiens) (UniProt P68371+Q9H4B7+P0DPH7+P68366+Q13509+Q71U36+P04350+Q3ZCM7+P07437+P68363+Q9BQE3+Q6PEY2+Q13885+Q9BVA1+Q9BUF5); experiment: Inhibition of tubulin (unknown origin) polymerization at 50 uM by turbidometric method relative to control; type: protein-complex assay
Outline: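 Values are percent inhibition of microtubule polymerisation relative to control. Microtubule protein of unstated origin was incubated with compound at 0° C., then polymerisation was started in cuvettes with 1 mM GTP and heating to 37° C. Absorbance at 340 nm was recorded over time.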

| Structure (SMILES) | inhibition of growth at 20 µM [1] | inhibition (Tubulin (Homo sapiens)) |
| --- | --- | --- |
| CCCC(Nc1cncc(-c2ccc(NC(=O)NCC)c(C)c2)n1)c1cnccc1C (centres undefined) | > 50% | > 50% |
| CCCC(Nc1cncc(-c2ccc(NC(=O)NCC)c(OC)c2)n1)c1cncc(C)c1 (centres undefined) | > 50% | > 50% |
| CCCC(Nc1cncc(-c2ccc(NC(=O)NCC)c(OC)c2)n1)c1cnccc1C (centres undefined) | > 50% | > 50% |
| CCCC(Nc1cncc(-c2ccc(OCCCn3ccnc3)c(OC)c2)n1)c1ccccc1 (centres undefined) | > 50% | > 50% |
| CCCC(Nc1cncc(-c2ccc(OCCCCO)c(OC)c2)n1)c1ccccc1 (centres undefined) | > 50% | > 50% |
| COc1cc(-c2cc(N[C@@H](C)c3ccccc3)ncn2)ccc1O | > 50% | > 50% |
| CCCC(Nc1nc(-c2ccc(NC(=O)NCC)c(OC)c2)cnc1C)c1ccccc1 (centres undefined) | > 50% | > 50% |
| CCCC(Nc1cncc(-c2ccc(OCCCN3CCCC3)c(OC)c2)n1)c1ccccc1 (centres undefined) | > 50% | > 50% |
| CCC[C@H](Nc1cncc(-c2ccc(NC(=O)NCC)c(OC)c2)n1)c1ccccc1 | > 50% | > 50% |
| CCCC(Nc1cncc(-c2ccc(NC(=O)NCC)c(CC)c2)n1)c1cccnc1 (centres undefined) | > 50% | > 50% |
| CCCC(Nc1cncc(-c2ccc(CN)cc2)n1)c1ccccc1 (centres undefined) | > 50% | > 50% |
| COc1cc(-c2cncc(N[C@@H](C)c3ccccc3)c2)ccc1O | > 50% | > 50% |
| CCCC(Nc1cncc(-c2ccc(CO)cc2)n1)c1ccccc1 (centres undefined) | > 50% | > 50% |
| CCCC(Nc1cncc(-c2ccc(O)c(OC)c2)c1)c1ccccc1 (centres undefined) | > 50% | > 50% |
| CCCC(Nc1cncc(-c2ccc(OCCCN3CCN(C)CC3)c(OC)c2)n1)c1ccccc1 (centres undefined) | > 50% | > 50% |
| CCCC(Nc1cncc(-c2ccc(NC(=O)NCC)c(OC)c2)n1)c1cccc(F)c1 (centres undefined) | > 50% | > 50% |
| CCNC(=O)Nc1ccc(-c2cncc(N[C@@H](COCC)c3ccccc3)n2)cc1OC | > 50% | > 50% |
| CCCC(Nc1cncc(-c2ccc(OCCCO)c(OC)c2)n1)c1ccccc1 (centres undefined) | > 50% | > 50% |
| CCCC(Nc1cncc(-c2ccc(OCCCCN3CCN(C)CC3)c(OC)c2)n1)c1ccccc1 (centres undefined) | > 50% | > 50% |
| CCC[C@H](Nc1ccnc(-c2ccc(NC(=O)NCC)c(OC)c2)n1)c1cccnc1 | > 50% | > 50% |
| CCC[C@H](Nc1cncc(-c2ccc(NC(=O)NCC)c(C)c2)n1)c1cccnc1 | > 50% | > 50% |
| CC[C@H](Nc1nc(-c2ccc(O)c(OC)c2)ncc1C)c1cccnc1 | > 50% | > 50% |
| CCNC(=O)Nc1ccc(-c2cncc(N[C@@H](COC)c3ccccc3)n2)cc1OC | > 50% | > 50% |
| CCC[C@H](Nc1cc(-c2ccc(NC(=O)NCC)c(OC)c2)ncn1)c1cccnc1 | > 50% | > 50% |
| CCCC(Nc1cncc(-c2ccc(NC(=O)NCC)c(C)c2)n1)c1cccnc1 (centres undefined) | > 50% | > 50% |
| CCCC(Nc1cncc(-c2ccc(NC(=O)NCC)c(OC)c2)n1)c1cccnc1C (centres undefined) | > 50% | > 50% |

| Structure (SMILES) | inhibition of growth at 20 µM [1] | inhibition (Tubulin (Homo sapiens)) |
| --- | --- | --- |
| CCCC(Nc1cncc(-c2ccc(OCCCCN(CC)CC)c(OC)c2)n1)c1ccccc1 (centres undefined) | > 50% | > 50% |
| CCCC(Nc1cncc(-c2ccc(OCCCCN3CCCCC3)c(OC)c2)n1)c1ccccc1 (centres undefined) | > 50% | > 50% |
| CCNC(=O)Nc1ccc(-c2cncc(N[C@@H](CC)c3cccnc3)n2)cc1OC | > 50% | > 50% |
| CCC[C@H](Nc1cncc(-c2ccc(NC(=O)NCC)c(OC)c2)n1)c1cccnc1 | > 50% | > 50% |
| CCCC(Nc1cncc(-c2ccc(CN3CCCC3)cc2)n1)c1ccccc1 (centres undefined) | > 50% | > 50% |
| CCCC(Nc1cncc(-c2ccc(OCCCCN3CCCC3)c(OC)c2)n1)c1ccccc1 (centres undefined) | > 50% | > 50% |
| CCCC(Nc1cncc(-c2ccc(CNC(=O)C3CCCNC3)cc2)n1)c1ccccc1 (centres undefined) | > 50% | > 50% |
| CCCC(Nc1cncc(-c2ccc(OCCCCN)c(OC)c2)n1)c1ccccc1 (centres undefined) | > 50% | > 50% |
| CCCC(Nc1cncc(-c2cc(C)c(O)c(C)c2)c1)c1ccccc1 (centres undefined) | > 50% | > 50% |
| CCCC(Nc1cncc(-c2ccc(NC(=O)NCC)c(OC)c2)n1)c1cccnc1 (centres undefined) | > 50% | > 50% |
| COc1cc(-c2nccc(N[C@@H](C)c3ccccc3)n2)ccc1O | > 50% | > 50% |
| CCCC(Nc1cncc(-c2ccc(CNC(=O)C3CCNCC3)cc2)n1)c1ccccc1 (centres undefined) | > 50% | > 50% |
| CCCC(Nc1cncc(-c2ccc(NC(=O)NCC)c(C)c2)n1)c1ccccn1 (centres undefined) | > 50% | > 50% |
| CCCC(Nc1nnc(C)c(-c2ccc(O)c(OC)c2)n1)c1ccccc1 (centres undefined) | > 50% | > 50% |
| CCCC(Nc1cncc(-c2ccc(NC(=O)NCCN(C)C)c(OC)c2)n1)c1cccnc1 (centres undefined) | > 50% | > 50% |
| CCCC(Nc1cc(-c2ccc(O)c(OC)c2)ncn1)c1cccnc1 (centres undefined) | > 50% | > 50% |
| CCCC(Nc1cncc(-c2ccc(NC(=O)NCC)c(OC)c2)n1)c1ccccn1 (centres undefined) | > 50% | > 50% |
| CCC[C@H](Nc1nc(-c2ccc(NC(=O)NCC)c(OC)c2)ncc1C)c1cccnc1 [LEXIBULIN] | > 50% | > 50% |
| CCCC(Nc1cncc(-c2ccc(OCCCN(CC)CC)c(OC)c2)n1)c1ccccc1 (centres undefined) | > 50% | > 50% |
| CCCC(Nc1cncc(-c2ccc(NC(=O)NCCCN3CCOCC3)c(OC)c2)n1)c1cccnc1 (centres undefined) | > 50% | > 50% |
| CCC[C@H](Nc1cncc(-c2ccc(NC(=O)NCC)c(OC)c2)n1)c1ccccn1 | > 50% | > 50% |
| CCNC(=O)Nc1ccc(-c2ncc(C)c(N[C@@H](CC)c3cccnc3)n2)cc1OC | > 50% | > 50% |
| CCCC(Nc1cncc(-c2ccc(CN)c(OC)c2)n1)c1cccnc1 (centres undefined) | > 50% | > 50% |
| CCC[C@H](Nc1nc(-c2ccc(O)c(OC)c2)ncc1C)c1cccnc1 | > 50% | > 50% |
| CCNC(=O)Nc1ccc(-c2cncc(NC(CCOC)c3ccccc3)n2)cc1OC (centres undefined) | > 50% | > 50% |
| CCCC(Nc1cncc(-c2ccc(OCCN(CC)CC)c(OC)c2)n1)c1ccccc1 (centres undefined) | > 50% | > 50% |
